Patent US20140343008A1, “HEPATITIS C TREATMENT” (Gilead Pharmasset LLC, priority 2013, published 2014)
Where two headings read alike, the source gives them in different places.

Tests used:
[1] = tested on: human colon carcinoma cell line (caco-2); test: Bidirectional permeability of sofosbuvir in caco-2 monolayers; details: for Papp of sofosbuvir, Forward, Average / Papp of sofosbuvir, Forward, Repat 2 / Papp of sofosbuvir, Forward, Repeat 1 / Papp of sofosbuvir, Reverse, Average / Papp of sofosbuvir, Reverse, Repat 2 / Papp of sofosbuvir, Reverse, Repeat 1 / effect of coincubation on permeability/efflux of sofosbuvir, fold increase: human, Caco-2, 120 min, pH 7.4
Experimental: (§1) Caco-2 human intestinal epithelial cell monolayers cultured for twenty-one to twenty-eight days were plated on 12 well Transwell® dual chamber plates.
(§2) Assays were run in duplicate (n=2) in one to two separate experiments. Assay buffer at pH 7.4 was placed in both chambers. Hanks buffer with 1% BSA was used in receiver compartment.
(§3) Apical side was dosed for apical-to-basolateral (A to B) assessment. Basolateral side was dosed for basolateral-to-apical (B to A) assessment. Donor side was sampled at time points of 0 and 120 minutes.
(§4) Receiver side was sampled at time points: 60 and 120 minutes.
(§5) The apparent permeability, Papp, and % recovery were calculated as follows: […]
(§6) Where, dR/dt is the slope of the cumulative concentration in the receiver compartment versus time in μM/s based on receiver concentrations measured at 60 and 120 minutes. Vr and Vd are the volumes in the receiver and donor compartment in cm^3, respectively. A is the area of the cell monolayer (1.12 cm^2). D0 and D120 are the measured donor concentrations at the beginning and end of the experiment, respectively. R120 is the receiver concentration at the end of the experiment (120 minutes).

[2] = Phase I pharmacokinetic study of the combination of Compound I and sofosbuvir in healthy volunteers; assay type: in vivo, human; details: for AUC(0-inf) / Cmax / AUC(0-t) / AUC: both sexes, human; for AUC(0-inf): healthy volunteers, read-out: AUCinf, Mean; for AUC(0-inf) / Cmax / AUC(0-t) / Ctau, Mean / AUC: n = 18; for AUC(0-t): read-out: AUClast, Mean; for AUC: read-out: AUCtau, Mean
Description: This example studied the pharmacokinetics (PK) of the combination of Compound I and sofosbuvir (SOF), along with two metabolites of SOF, Metabolite I and II, in healthy volunteers, as part of a Phase I clinical study for Compound I.
This was a randomized, open label, single-center, multiple-dose study that enrolled Healthy males and non-pregnant, non-lactating females from 18 to 45 years old. The duration of the study was up to 38 days, and duration of the treatment was 28 days.
Additional specific exclusion criteria included, (1) use of over the counter (OTC) or prescribed medications that affect gastric pH (i.e., antacids, H2 receptor antagonists (H2RAs), and/or proton-pump inhibitors (PPIs)) 28 days prior to baseline and (2) history of severe peptic ulcer disease, GERD, or other stomach acid diseases requiring prolonged (>6 months) medication or surgical therapy to modify gastric pH. […]
Plasma concentrations and pharmacokinetic parameters for the compounds were listed and summarized using descriptive statistics by treatment. In addition, an analysis of variance (ANOVA) using a mixed-effects model with treatment, period, sequence as fixed effects and subject within sequence as a random effect were fitted to the natural logarithmic transformation of PK parameters (AUCinf, AUClast, and Cmax).
The 90% confidence intervals were constructed for the ratio of geometric least-squares means of primary PK parameters for each of the test treatments (as shown in Table 1).

[3] = Bidirectional permeability of sofosbuvir in caco-2 monolayers; details: human, Caco-2, pH 7.4
Experimental: as §1, §2, §3, §4, §5, §6

[4] = target: P-gp (Homo sapiens, UniProt P08183); test: In vitro drug transporter inhibition, P-gp; assay type: in vitro ADME
Description: (§7) Based on the results of Example 1, it was contemplated that Compound I increased the exposure of sofosbuvir by inhibiting the activities of one or more drug transporters. This example carried out in vitro experiments to test whether Compound I inhibited any of the potentially relevant drug transporters, […], BCRP and P-gp.

[5] = target: T1, BCRP (Homo sapiens, UniProt Q9UNQ0); test: In vitro drug transporter inhibition, BCRP; assay type: in vitro ADME
T1 sequence (Q9UNQ0 1-655): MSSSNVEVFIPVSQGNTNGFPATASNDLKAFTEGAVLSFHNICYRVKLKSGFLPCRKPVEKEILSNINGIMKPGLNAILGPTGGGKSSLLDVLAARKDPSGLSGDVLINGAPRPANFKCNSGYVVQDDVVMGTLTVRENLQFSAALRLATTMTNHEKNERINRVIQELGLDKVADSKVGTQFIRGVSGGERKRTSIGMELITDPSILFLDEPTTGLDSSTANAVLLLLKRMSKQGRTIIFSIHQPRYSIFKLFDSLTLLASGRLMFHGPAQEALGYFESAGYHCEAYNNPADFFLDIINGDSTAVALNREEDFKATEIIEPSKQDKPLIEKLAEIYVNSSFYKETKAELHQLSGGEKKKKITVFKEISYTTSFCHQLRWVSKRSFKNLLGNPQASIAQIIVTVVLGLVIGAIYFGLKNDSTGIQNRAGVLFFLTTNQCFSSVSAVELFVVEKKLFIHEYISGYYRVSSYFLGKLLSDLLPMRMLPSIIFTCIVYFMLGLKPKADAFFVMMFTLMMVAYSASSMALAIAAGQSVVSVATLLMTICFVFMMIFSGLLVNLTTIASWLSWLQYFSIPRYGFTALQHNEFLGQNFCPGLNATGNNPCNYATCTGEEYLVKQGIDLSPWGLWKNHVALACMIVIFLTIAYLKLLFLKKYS
Description: as §7

[6] = in vivo, plasma analyte after SOF + Comp I
[7] = in vivo, plasma analyte after SOF alone
[8] = co-administration with Compound I versus SOF alone
[9] = SOF + Comp I versus Comp I alone
[10] = plasma, oral, 100 mg, Comp I alone

Chain of P-gp (P08183 whole entry): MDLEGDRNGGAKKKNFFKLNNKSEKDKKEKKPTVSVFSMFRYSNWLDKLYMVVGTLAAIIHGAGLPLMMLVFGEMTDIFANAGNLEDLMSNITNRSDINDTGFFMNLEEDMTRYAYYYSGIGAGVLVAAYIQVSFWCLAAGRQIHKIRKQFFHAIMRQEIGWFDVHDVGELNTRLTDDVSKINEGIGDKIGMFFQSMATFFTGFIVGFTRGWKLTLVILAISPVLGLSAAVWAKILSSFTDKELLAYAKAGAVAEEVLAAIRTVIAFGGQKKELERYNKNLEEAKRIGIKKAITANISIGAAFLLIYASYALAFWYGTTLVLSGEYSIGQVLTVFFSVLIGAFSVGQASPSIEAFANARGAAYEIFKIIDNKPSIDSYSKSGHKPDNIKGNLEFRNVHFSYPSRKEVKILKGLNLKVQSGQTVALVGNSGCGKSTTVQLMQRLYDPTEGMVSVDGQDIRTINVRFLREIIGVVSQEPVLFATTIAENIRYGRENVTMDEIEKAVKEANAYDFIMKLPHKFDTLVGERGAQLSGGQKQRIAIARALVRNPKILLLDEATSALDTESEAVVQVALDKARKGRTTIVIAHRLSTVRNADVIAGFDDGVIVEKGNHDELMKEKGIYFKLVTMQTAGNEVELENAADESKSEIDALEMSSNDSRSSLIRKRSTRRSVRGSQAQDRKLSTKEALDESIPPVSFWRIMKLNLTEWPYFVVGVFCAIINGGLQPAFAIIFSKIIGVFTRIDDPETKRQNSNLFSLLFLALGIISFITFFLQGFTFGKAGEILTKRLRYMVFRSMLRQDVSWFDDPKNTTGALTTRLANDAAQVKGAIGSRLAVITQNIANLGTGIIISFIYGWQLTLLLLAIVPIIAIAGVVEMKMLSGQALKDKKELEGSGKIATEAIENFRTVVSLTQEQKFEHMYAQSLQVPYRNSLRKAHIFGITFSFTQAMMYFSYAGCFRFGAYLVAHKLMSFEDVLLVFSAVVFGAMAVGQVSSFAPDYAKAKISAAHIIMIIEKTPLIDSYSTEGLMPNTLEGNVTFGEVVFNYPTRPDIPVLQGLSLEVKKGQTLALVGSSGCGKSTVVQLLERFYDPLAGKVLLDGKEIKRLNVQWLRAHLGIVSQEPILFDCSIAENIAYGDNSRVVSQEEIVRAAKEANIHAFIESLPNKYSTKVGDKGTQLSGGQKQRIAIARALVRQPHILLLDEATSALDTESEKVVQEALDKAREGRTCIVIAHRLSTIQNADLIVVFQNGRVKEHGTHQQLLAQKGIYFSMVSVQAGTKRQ

For `CC(C)NCC(O)COc1cccc2ccccc12` (stereo not shown) [Propranolol, reference compound], the “permeability through caco-2 cells (in words)” value ([1]; Caco-2) was “high permeability”.
For `CC(C)OC(=O)[C@H](C)N[P@](=O)(OC[C@H]1O[C@@H](n2ccc(=O)[nH]c2=O)[C@](C)(F)[C@@H]1O)Oc1ccccc1` [Sofosbuvir, (S)-isopropyl 2-(((S)-(((2R,3R,4R,5R)-5-(2,4-dioxo-3,4-dihydropyrimidin-1(2H)-yl)-4-fluoro-3-hydroxy-4-methyltetrahydrofuran-2-yl)methoxy)(phenoxy)phosphoryl)amino)propanoate], the “AUCinf, % GMR” value ([2]; SOF + Comp I versus SOF alone) was 238%, the “AUClast, % GMR” value ([2]; SOF + Comp I versus SOF alone) was 238% and the “Cmax, % GMR” value ([2]; SOF + Comp I versus SOF alone) was 181%. For the same compound, the AUC(0-inf) ([2]; in vivo, plasma analyte after SOF + Comp I (100 mg)) was 2860 ng·h/mL, the Cmax [2, 6] was 1670 ng/mL and the AUC(0-t) [2, 6] was 2850 ng·h/mL. It also gave an AUC(0-inf) [2, 7] of 1200 ng·h/mL, a Cmax [2, 7] of 964 ng/mL and an AUC(0-t) [2, 7] of 1200 ng·h/mL. The “AUC increase by Compound I” value [2, 8] was roughly 2.4 fold, the “Cmax increase by Compound I” value [2, 8] was roughly 1.8 fold and the “permeability through caco-2 cells (in words)” value ([1]; sofosbuvir alone at 10 μM, control compounds for acceptance criteria) was “low permeability”. For the same compound, the Papp A→B at 120 min, 10 μM [3] was 0.25 ×10⁻⁶ cm/s and the efflux ratio at 120 min, 10 μM [3] was 43.6.
With `CC1=CC[C@H](C(=O)N(c2cc(C#CC(C)(C)C)sc2C(=O)O)[C@H]2CC[C@](O)(CO[C@H]3CCOC3)CC2)CC1` [Compound III, 5-(3,3-dimethylbutyn-1-yl)-3-[(cis-4-hydroxy-4-{[(3S)-tetrahydrofuran-3-yloxy]methyl}cyclohexyl) {[(1R)-4-methylcyclohex-3-en-1-yl]carbonyl}amino]thiophene-2-carboxylic acid] the “Papp of sofosbuvir, Forward, Average” value [1] was 0.3 10^−6 cm/s, the “Papp of sofosbuvir, Forward, Repat 2” value [1] was 0.28 10^−6 cm/s and the “Papp of sofosbuvir, Forward, Repeat 1” value [1] was 0.31 10^−6 cm/s. For the same compound, the “Papp of sofosbuvir, Reverse, Average” value [1] was 6.93 10^−6 cm/s, the “Papp of sofosbuvir, Reverse, Repat 2” value [1] was 6.82 10^−6 cm/s and the “Papp of sofosbuvir, Reverse, Repeat 1” value [1] was 7.05 10^−6 cm/s. The “effect of coincubation on permeability/efflux of sofosbuvir, fold increase” value [1] was roughly 2 fold.
In the case of `C[C@H]1O[C@@H](O[C@H]2[C@@H](O)C[C@H](O[C@H]3[C@@H](O)C[C@H](O[C@H]4CC[C@@]5(C)[C@H](CC[C@@H]6[C@@H]5C[C@@H](O)[C@]5(C)[C@@H](C7=CC(=O)OC7)CC[C@]65O)C4)O[C@@H]3C)O[C@@H]2C)C[C@H](O)[C@@H]1O` [digoxin, reference compound], the “transport of control transport substrate” value ([1]; control) is reported as “Transport was observed”.
In the case of `COC[C@H]1C[C@@H](c2ncc(-c3ccc4c(c3)COc3cc5c(ccc6nc([C@@H]7CC[C@H](C)N7C(=O)[C@@H](NC(=O)OC)C(C)C)[nH]c65)cc3-4)[nH]2)N(C(=O)[C@H](NC(=O)OC)c2ccccc2)C1` [Compound I, methyl {(2S)-1-[(2S,5S)-2-(9-{2-[(2S,4S)-1-{(2R)-2-[(methoxycarbonyl)amino]-2-phenylacetyl}-4-(methoxymethyl)pyrrolidin-2-yl]-1H-imidazol-5-yl}-1,11-dihydroisochromeno[4′,3′:6,7]naphtho[1,2-d]imidazol-2-yl)-5-methylpyrrolidin-1-yl]-3-methyl-1-oxobutan-2-yl}carbamate], the “inhibition of P-gp” value [4] is reported as “marked inhibition”, the “Ctau, Mean” value ([2]; Comp I alone) is reported as 113 ng/mL and the “AUCtau, % GMR” value [2, 9] is reported as 112%. The “Cmax, % GMR” value [2, 9] was 106%, the “Ctau, % GMR” value [2, 9] was 118% and the “Ctau, Mean” value ([2]; SOF + Comp I) was 135 ng/mL. For the same compound, the Cmax [2, 10] was 963 ng/mL, the AUC [2, 10] was 7690 ng·h/mL and the Cmax ([2]; plasma, oral, Compound I analyte, SOF + Comp I) was 1020 ng/mL. The AUC ([2]; plasma, oral, SOF + Comp I) was 8600 ng·h/mL, the “Papp of sofosbuvir, Forward, Average” value [1] was 0.66 10^−6 cm/s and the “Papp of sofosbuvir, Forward, Repat 2” value [1] was 0.6 10^−6 cm/s. The “Papp of sofosbuvir, Forward, Repeat 1” value [1] was 0.73 10^−6 cm/s, the “Papp of sofosbuvir, Reverse, Average” value [1] was 7.39 10^−6 cm/s and the “Papp of sofosbuvir, Reverse, Repat 2” value [1] was 7.56 10^−6 cm/s. For the same compound, the “Papp of sofosbuvir, Reverse, Repeat 1” value [1] was 7.22 10^−6 cm/s, the “effect of coincubation on permeability/efflux of sofosbuvir, fold increase” value [1] was roughly 4 fold and the “inhibition of BCRP” value [5] was “not on other tested transporters”.
In the case of lucifer yellow [reference compound], the “permeability through caco-2 cells (in words)” value ([1]; Caco-2) is reported as “indicated appropriate membrane integrity”.
In the case of `Fc1ccccc1-c1nc2ccn(Cc3ccc(-c4ccc(C(F)(F)F)cc4C(F)(F)F)nn3)cc-2n1` [Compound V, 5-((6-(2,4-bis(trifluoromethyl)phenyl)pyridazin-3-yl)methyl)-2-(2-fluorophenyl)-5H-imidazo[4,5-c]pyridine], the “Papp of sofosbuvir, Forward, Average” value [1] is reported as 11.1 10^−6 cm/s, the “Papp of sofosbuvir, Forward, Repat 2” value [1] is reported as 0.92 10^−6 cm/s and the “Papp of sofosbuvir, Forward, Repeat 1” value [1] is reported as 0.46 10^−6 cm/s. The “Papp of sofosbuvir, Reverse, Average” value [1] was 1.09 10^−6 cm/s, the “Papp of sofosbuvir, Reverse, Repat 2” value [1] was 11.7 10^−6 cm/s and the “Papp of sofosbuvir, Reverse, Repeat 1” value [1] was 10.5 10^−6 cm/s. For the same compound, the “effect of coincubation on permeability/efflux of sofosbuvir, fold increase” value [1] was roughly 2 fold.
